Test results as given in US20250163104A1, “MACROCYCLIC IMMUNOMODULATORS” (priority 2021, published 2025).
*1 amine or outer side, *2 acyl side, *3 side chain or, on linkers, in order; H or OH if unused. Where a SMILES comes first, the peptide text is derived from it. Bridges are numbered along the chain shown (N, C = ends). [ ]: non-standard residue; d: D form. The star is where a group is joined. Phe(3-CH2NH2) = O=C([C@H](Cc1cccc(CN[*:3])c1)N[*:1])[*:2]; Bip = N[C@@H](Cc1ccc(-c2ccccc2)cc1)C(=O)O; Phe(3-CN) = N#Cc1cccc(C[C@H](N)C(=O)O)c1; Phe(3-Cl) = N[C@@H](Cc1cccc(Cl)c1)C(=O)O; AEF = NCCOc1ccc(C[C@H](N)C(=O)O)cc1; Cha = N[C@@H](CC1CCCCC1)C(=O)O; Carboxymethyl = O=C(O)C*; Orn = NCCC[C@H](N)C(=O)O; Dab = NCC[C@H](N)C(=O)O; Dap = NC[C@H](N)C(=O)O

Biological target: T1, human PD-1 / PD-L1-Ig binding on Jurkat cell line over-expressing human PD-1 (Jurkat-PD-1) (Homo sapiens, UniProt Q15116)
T1 construct: expressed in transfected cells; host or cells: Jurkat
T1 sequence (Q15116 25-288): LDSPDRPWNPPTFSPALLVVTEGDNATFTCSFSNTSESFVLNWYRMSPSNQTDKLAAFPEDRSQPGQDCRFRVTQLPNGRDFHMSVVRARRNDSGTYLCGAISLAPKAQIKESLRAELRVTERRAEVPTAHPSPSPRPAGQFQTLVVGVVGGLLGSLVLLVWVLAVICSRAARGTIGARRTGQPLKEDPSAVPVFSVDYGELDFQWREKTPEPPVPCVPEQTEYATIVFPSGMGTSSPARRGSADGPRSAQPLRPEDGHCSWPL
Assay: Jurkat-PD-1 Cell Binding High-Content Screening Assay (CBA)
Assay type: cell-based
Conditions: Jurkat-PD-1 cells, PE-labeled PD-L1-Ig 20 nM final; read-out: Jurkat HPD1_PDL1 IC50
How it was run: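 Jurkat-hPD-1 cells in DMEM with 10% fetal calf serum receive test compound and are held at 37° C for 2 h. PE-labeled PD-L1-Ig is added at 20 nM final and left for 1 hour. Cells are then fixed and Hoechst-stained, and binding is measured by imaging.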

Row | IC50 [nM] | SMILES
1 | 56.7 | CC(C)C[C@H]1NC(=O)[C@H](CCCN)NC(=O)[C@H](CCC(=O)O)NC(=O)[C@H](Cc2ccc(-c3ccccc3)cc2)NC(=O)[C@H](C(C)C)NC(=O)[C@H](Cc2c[nH]c3ccccc23)NC(=O)[C@H](CC(=O)O)NC(=O)[C@H](Cc2ccc(OCC(=O)O)cc2)NC(=O)[C@H](CN)NC(=O)CSC[C@@H](C(=O)N[C@@H](C)C(N)=O)NC(=O)[C@H]([C@@H](C)O)NC(=O)[C@H](C(C)C)NC(=O)[C@H](Cc2cccc(Cl)c2)NC(=O)[C@H](CCN)NC1=O [Compound 1506] ({CH2CO}-[Dap]Y(Carboxymethyl)DWV[Bip]E[Orn][dL][Dab][Phe(3-Cl)]VTCA-NH2; thioether N-14)
2 | 154 | CC(C)C[C@H]1NC(=O)[C@H](CCCN)NC(=O)[C@H](CCC(=O)O)NC(=O)[C@H](Cc2ccc(-c3ccccc3)cc2)NC(=O)[C@H](C(C)C)NC(=O)[C@H](Cc2c[nH]c3ccccc23)NC(=O)[C@H](CC(=O)O)NC(=O)[C@H](Cc2ccc(OCC(=O)O)cc2)NC(=O)[C@H](CN)NC(=O)CSC[C@@H](C(=O)N[C@@H](C)C(N)=O)NC(=O)[C@H]([C@@H](C)O)NC(=O)[C@H](C(C)C)NC(=O)[C@H](Cc2cccc(C#N)c2)NC(=O)[C@H](CCN)NC1=O [Compound 1507] ({CH2CO}-[Dap]Y(Carboxymethyl)DWV[Bip]E[Orn][dL][Dab][Phe(3-CN)]VTCA-NH2; thioether N-14)
3 | 163 | CC(C)C[C@H]1NC(=O)[C@H](CCCN)NC(=O)[C@H](CCC(=O)O)NC(=O)[C@H](Cc2ccc(-c3ccccc3)cc2)NC(=O)[C@H](C(C)C)NC(=O)[C@H](Cc2c[nH]c3ccccc23)NC(=O)[C@H](CC(=O)O)NC(=O)[C@H](Cc2ccc(OCC(=O)O)cc2)NC(=O)[C@H](CN)NC(=O)CSC[C@@H](C(=O)N[C@@H](C)C(N)=O)NC(=O)[C@H]([C@@H](C)O)NC(=O)[C@H](C(C)C)NC(=O)[C@H](Cc2cccc(CN)c2)NC(=O)[C@H](CCN)NC1=O [Compound 1508] ({CH2CO}-[Dap]Y(Carboxymethyl)DWV[Bip]E[Orn][dL][Dab][Phe(3-CH2NH2)]VTCA-NH2; thioether N-14)
4 | 413 | CC(C)C[C@H]1NC(=O)[C@H](CCCN)NC(=O)[C@H](CCC(=O)O)NC(=O)[C@H](Cc2ccc(-c3ccccc3)cc2)NC(=O)[C@H](C(C)C)NC(=O)[C@H](Cc2c[nH]c3ccccc23)NC(=O)[C@H](CC(=O)O)NC(=O)[C@H](Cc2ccc(OCC(=O)O)cc2)NC(=O)[C@H](CN)NC(=O)CSC[C@@H](C(=O)N[C@@H](C)C(N)=O)NC(=O)[C@H]([C@@H](C)O)NC(=O)[C@H](C(C)C)NC(=O)[C@H](Cc2ccn[nH]2)NC(=O)[C@H](CCN)NC1=O [Compound 1509]
5 | 25.7 | CC(C)C[C@H]1NC(=O)[C@H](CCCN)NC(=O)[C@H](CCC(=O)O)NC(=O)[C@H](Cc2ccc(-c3ccccc3)cc2)NC(=O)[C@H](C(C)C)NC(=O)[C@H](Cc2c[nH]c3ccccc23)NC(=O)[C@H](CC(=O)O)NC(=O)[C@H](Cc2ccc(OCC(=O)O)cc2)NC(=O)[C@H](CN)NC(=O)CSC[C@@H](C(=O)N[C@@H](C)C(N)=O)NC(=O)[C@H]([C@@H](C)O)NC(=O)[C@H](C(C)C)NC(=O)[C@H](Cc2cscn2)NC(=O)[C@H](CCN)NC1=O [Compound 1510]
6 | 737 | CC(C)C[C@H]1NC(=O)[C@H](CCCN)NC(=O)[C@H](CCC(=O)O)NC(=O)[C@H](Cc2ccc(-c3ccccc3)cc2)NC(=O)[C@H](C(C)C)NC(=O)[C@H](Cc2c[nH]c3ccccc23)NC(=O)[C@H](CC(=O)O)NC(=O)[C@H](Cc2ccc(OCC(=O)O)cc2)NC(=O)[C@H](CN)NC(=O)CSC[C@@H](C(=O)N[C@@H](C)C(N)=O)NC(=O)[C@H]([C@@H](C)O)NC(=O)[C@H](C(C)C)NC(=O)[C@H](Cc2ccc(OCCN)cc2)NC(=O)[C@H](CCN)NC1=O [Compound 1511] ({CH2CO}-[Dap]Y(Carboxymethyl)DWV[Bip]E[Orn][dL][Dab][AEF]VTCA-NH2; thioether N-14)
7 | 22.9 | CC(C)C[C@H]1NC(=O)[C@H](CCCN)NC(=O)[C@H](CCC(=O)O)NC(=O)[C@H](Cc2ccc(-c3ccccc3)cc2)NC(=O)[C@H](C(C)C)NC(=O)[C@H](Cc2c[nH]c3ccccc23)NC(=O)[C@H](CC(=O)O)NC(=O)[C@H](Cc2ccc(OCC(=O)O)cc2)NC(=O)[C@H](CN)NC(=O)CSC[C@@H](C(=O)N[C@@H](C)C(N)=O)NC(=O)[C@H]([C@@H](C)O)NC(=O)[C@H](C(C)C)NC(=O)[C@H](CC2CCCCC2)NC(=O)[C@H](CC(N)=O)NC1=O [Compound 1512] ({CH2CO}-[Dap]Y(Carboxymethyl)DWV[Bip]E[Orn][dL]N[Cha]VTCA-NH2; thioether N-14)
8 | 25.7 | CC(C)C[C@H]1NC(=O)[C@H](CCCN)NC(=O)[C@H](CCC(=O)O)NC(=O)[C@H](Cc2ccc(-c3ccccc3)cc2)NC(=O)[C@H](C(C)C)NC(=O)[C@H](Cc2c[nH]c3ccccc23)NC(=O)[C@H](CC(=O)O)NC(=O)[C@H](Cc2ccc(OCC(=O)O)cc2)NC(=O)[C@H](CN)NC(=O)CSC[C@@H](C(=O)N[C@@H](C)C(N)=O)NC(=O)[C@H]([C@@H](C)O)NC(=O)[C@H](C(C)C)NC(=O)[C@H](CC2CCCCC2)NC(=O)[C@H](CCC(N)=O)NC1=O [Compound 1513] ({CH2CO}-[Dap]Y(Carboxymethyl)DWV[Bip]E[Orn][dL]Q[Cha]VTCA-NH2; thioether N-14)
9 | 34.8 | CC(C)C[C@H]1NC(=O)[C@H](CCCN)NC(=O)[C@H](CCC(=O)O)NC(=O)[C@H](Cc2ccc(-c3ccccc3)cc2)NC(=O)[C@H](C(C)C)NC(=O)[C@H](Cc2c[nH]c3ccccc23)NC(=O)[C@H](CC(=O)O)NC(=O)[C@H](Cc2ccc(OCC(=O)O)cc2)NC(=O)[C@H](CN)NC(=O)CSC[C@@H](C(=O)N[C@@H](C)C(N)=O)NC(=O)[C@H]([C@@H](C)O)NC(=O)[C@H](C(C)C)NC(=O)[C@H](CC2CCCCC2)NC(=O)[C@H](CC(=O)O)NC1=O [Compound 1514] ({CH2CO}-[Dap]Y(Carboxymethyl)DWV[Bip]E[Orn][dL]D[Cha]VTCA-NH2; thioether N-14)
10 | 28.8 | CC(C)C[C@H]1NC(=O)[C@H](CCCN)NC(=O)[C@H](CCC(=O)O)NC(=O)[C@H](Cc2ccc(-c3ccccc3)cc2)NC(=O)[C@H](C(C)C)NC(=O)[C@H](Cc2c[nH]c3ccccc23)NC(=O)[C@H](CC(=O)O)NC(=O)[C@H](Cc2ccc(OCC(=O)O)cc2)NC(=O)[C@H](CN)NC(=O)CSC[C@@H](C(=O)N[C@@H](C)C(N)=O)NC(=O)[C@H]([C@@H](C)O)NC(=O)[C@H](C(C)C)NC(=O)[C@H](CC2CCCCC2)NC(=O)[C@H](CCC(=O)O)NC1=O [Compound 1515] ({CH2CO}-[Dap]Y(Carboxymethyl)DWV[Bip]E[Orn][dL]E[Cha]VTCA-NH2; thioether N-14)
11 | 30 | CC(C)C[C@H]1NC(=O)[C@H](CCCN)NC(=O)[C@H](CCC(=O)O)NC(=O)[C@H](Cc2ccc(-c3ccccc3)cc2)NC(=O)[C@H](C(C)C)NC(=O)[C@H](Cc2c[nH]c3ccccc23)NC(=O)[C@H](CC(=O)O)NC(=O)[C@H](Cc2ccc(OCC(=O)O)cc2)NC(=O)[C@H](CN)NC(=O)CSC[C@@H](C(=O)N[C@@H](C)C(N)=O)NC(=O)[C@H]([C@@H](C)O)NC(=O)[C@H](C(C)C)NC(=O)[C@H](CC2CCCCC2)NC(=O)[C@H](CO)NC1=O [Compound 1516] ({CH2CO}-[Dap]Y(Carboxymethyl)DWV[Bip]E[Orn][dL]S[Cha]VTCA-NH2; thioether N-14)
12 | 34.2 | CC(C)C[C@H]1NC(=O)[C@H](CCCN)NC(=O)[C@H](CCC(=O)O)NC(=O)[C@H](Cc2ccc(-c3ccccc3)cc2)NC(=O)[C@H](C(C)C)NC(=O)[C@H](Cc2c[nH]c3ccccc23)NC(=O)[C@H](CC(=O)O)NC(=O)[C@H](Cc2ccc(OCC(=O)O)cc2)NC(=O)[C@H](CN)NC(=O)CSC[C@@H](C(=O)N[C@@H](C)C(N)=O)NC(=O)[C@H]([C@@H](C)O)NC(=O)[C@H](C(C)C)NC(=O)[C@H](CC2CCCCC2)NC(=O)[C@H]([C@@H](C)O)NC1=O [Compound 1517] ({CH2CO}-[Dap]Y(Carboxymethyl)DWV[Bip]E[Orn][dL]T[Cha]VTCA-NH2; thioether N-14)
13 | 18.7 | CC(C)C[C@H]1NC(=O)[C@H](CCCN)NC(=O)[C@H](CCC(=O)O)NC(=O)[C@H](Cc2ccc(-c3ccccc3)cc2)NC(=O)[C@H](C(C)C)NC(=O)[C@H](Cc2c[nH]c3ccccc23)NC(=O)[C@H](CC(=O)O)NC(=O)[C@H](Cc2ccc(OCC(=O)O)cc2)NC(=O)[C@H](CN)NC(=O)CSC[C@@H](C(=O)N[C@@H](C)C(N)=O)NC(=O)[C@H]([C@@H](C)O)NC(=O)[C@H](C(C)C)NC(=O)[C@H](CC2CCCCC2)NC(=O)[C@H](Cc2cnc[nH]2)NC1=O [Compound 1518]
14 | 7.7 | CC(C)C[C@H]1NC(=O)[C@H](CCCN)NC(=O)[C@H](C(C)C)NC(=O)[C@H](Cc2ccc(-c3ccccc3)cc2)NC(=O)[C@H](C(C)C)NC(=O)[C@H](Cc2c[nH]c3ccccc23)NC(=O)[C@H](CC(=O)O)NC(=O)[C@H](Cc2ccc(OCC(=O)O)cc2)NC(=O)[C@H](CN)NC(=O)CSC[C@@H](C(=O)N[C@@H](C)C(N)=O)NC(=O)[C@H]([C@@H](C)O)NC(=O)[C@H](C(C)C)NC(=O)[C@H](CC2CCCCC2)NC(=O)[C@H](CC(N)=O)NC1=O [Compound 1519] ({CH2CO}-[Dap]Y(Carboxymethyl)DWV[Bip]V[Orn][dL]N[Cha]VTCA-NH2; thioether N-14)
15 | 10.5 | CC(C)C[C@H]1NC(=O)[C@H](CCCN)NC(=O)[C@H](C(C)C)NC(=O)[C@H](Cc2ccc(-c3ccccc3)cc2)NC(=O)[C@H](C(C)C)NC(=O)[C@H](Cc2c[nH]c3ccccc23)NC(=O)[C@H](CC(=O)O)NC(=O)[C@H](Cc2ccc(OCC(=O)O)cc2)NC(=O)[C@H](CN)NC(=O)CSC[C@@H](C(=O)N[C@@H](C)C(N)=O)NC(=O)[C@H]([C@@H](C)O)NC(=O)[C@H](C(C)C)NC(=O)[C@H](CC2CCCCC2)NC(=O)[C@H](CCC(N)=O)NC1=O [Compound 1520] ({CH2CO}-[Dap]Y(Carboxymethyl)DWV[Bip]V[Orn][dL]Q[Cha]VTCA-NH2; thioether N-14)
